According to ChEMBL document CHEMBL1129674, “Design, synthesis, and biological activity of a potent inhibitor of the neuropeptidase N-acetylated alpha-linked acidic dipeptidase” (J Med Chem, 1996):

Columns and labels:
Type in all cases: functional
Rattus norvegicus [1] = species on record: Rattus norvegicus; experiment: In vitro effect KCL-Evoked Glutamate at 1.0 nM
Rattus norvegicus [2] = species on record: Rattus norvegicus; experiment: In vitro effect KCL-Evoked Giutamate at 10.0 nM
Rattus norvegicus [3] = species on record: Rattus norvegicus; experiment: In vitro effect of compound on Basal Glutamate Efflux at 10.0 nM
Rattus norvegicus [4] = species on record: Rattus norvegicus; experiment: In vitro effect of compound on Basal Glutamate Efflux at 0.1 nM
Rattus norvegicus [5] = species on record: Rattus norvegicus; experiment: In vitro effect of compound on Basal Glutamate Efflux at 1.0 nM
Rattus norvegicus [6] = species on record: Rattus norvegicus; experiment: In vitro effect KCL-Evoked Giutamate at 0.1 nM

O=C(O)CCC(CP(=O)(O)O)C(=O)O (stereo unspecified)
Release (Rattus norvegicus [1]): 368 | Release (Rattus norvegicus [2]): 437 | Efflux (Rattus norvegicus [3]): 167% | Efflux (Rattus norvegicus [4]): 151% | Efflux (Rattus norvegicus [5]): 137% | Release (Rattus norvegicus [6]): 316
